≈ marks a conversion by molar mass, not a printed value. Calls of active or inactive are those of the source. The calls are words filed in the database; no cut-off is given here.
Legend:
[1] = system: Bacillus anthracis; assay: Antibacterial activity against Bacillus anthracis Sterne after 20 hrs; assay type: functional
[2] = system: Staphylococcus aureus; assay: Antibacterial activity against methicillin-resistant Staphylococcus aureus Lac JE2 USA300 after 20 hrs; assay type: functional; details: LAC JE2 USA300, 20 h
[3] = system: Pseudomonas aeruginosa; assay: Antibacterial activity against Pseudomonas aeruginosa ATCC 27853 at 100 ug/ml after 20 hrs; assay type: functional, organism-based
[4] = system: Staphylococcus aureus; assay: Antibacterial activity against Staphylococcus aureus ATCC 25923 after 20 hrs; assay type: functional
[5] = system: Burkholderia cepacia; assay: Antibacterial activity against Burkholderia cepacia ATCC 25608 after 20 hrs; assay type: functional
[6] = system: Klebsiella pneumoniae; assay: Antibacterial activity against Klebsiella pneumoniae ATCC BAA-1706 after 20 hrs; assay type: functional; details: ATCC BAA-1706, 20 h
[7] = system: Yersinia pestis; assay: Antibacterial activity against Yersinia pestis A1122 at 100 ug/ml after 20 hrs; assay type: functional
[8] = system: Burkholderia thailandensis; assay: Antibacterial activity against Burkholderia thailandensis ATCC 700388 after 20 hrs; assay type: functional
[9] = system: Escherichia coli; assay: Antibacterial activity against Escherichia coli ATCC 35218 at 100 ug/ml after 20 hrs; assay type: functional, organism-based
[10] = Antibacterial activity against Francisella tularensis subsp. holarctica ATCC 29684 after 20 hrs; assay type: functional; details: ATCC 29684, 20 h
[11] = system: Burkholderia thailandensis; assay: Antibacterial activity against Burkholderia thailandensis ATCC 700388 at 100 ug/ml after 20 hrs; assay type: functional
[12] = system: Pseudomonas aeruginosa; assay: Antibacterial activity against Pseudomonas aeruginosa ATCC 27853 after 20 hrs; assay type: functional; details: ATCC 27853, 20 h
[13] = system: Klebsiella pneumoniae; assay: Antibacterial activity against Klebsiella pneumoniae ATCC BAA-1706 at 100 ug/ml after 20 hrs; assay type: functional, organism-based
[14] = system: Staphylococcus aureus; assay: Antibacterial activity against Staphylococcus aureus ATCC 25923 at 100 ug/ml after 20 hrs; assay type: functional, organism-based
[15] = system: Staphylococcus aureus; assay: Antibacterial activity against methicillin-resistant Staphylococcus aureus Lac JE2 USA300 at 100 ug/ml after 20 hrs; assay type: functional, organism-based
[16] = system: Francisella tularensis subsp. holarctica; assay: Antibacterial activity against Francisella tularensis subsp. holarctica ATCC 29684 at 100 ug/ml after 20 hrs; assay type: functional
[17] = system: Yersinia pestis; assay: Antibacterial activity against Yersinia pestis A1122 after 20 hrs; assay type: functional; details: A1122, 20 h
[18] = system: Escherichia coli; assay: Antibacterial activity against Escherichia coli ATCC 35218 after 20 hrs; assay type: functional; details: ATCC 35218, 20 h
[19] = Inhibition of Bacillus anthracis Sterne 34F2 DnaG primase activity using a DNA 32-mer template; design: species or system Bacillus anthracis str. Sterne
[20] = system: Staphylococcus aureus; assay: Inhibition of Staphylococcus aureus DnaG primase activity after 1 hr by HPLC analysis
[21] = system: Burkholderia cepacia; assay: Antibacterial activity against Burkholderia cepacia ATCC 25608 at 100 ug/ml after 20 hrs; assay type: functional, organism-based

For `O=C1c2cc(OCCCCCCCCN3CCCCC3)ccc2-c2ccc(OCCCCCCCCN3CCCCC3)cc21`, the MIC [1] was 17.5 µg/mL (≈ 29 µM), the MIC [2] was 16 µg/mL (≈ 26.5 µM) and the Activity [3] was “inactive”. It also gave an MIC ([4]; ATCC 25923, 20 h) of 62.5 µg/mL (≈ 104 µM), an MIC ([5]; ATCC 25608, 20 h) of 87.5 µg/mL (≈ 145 µM) and an MIC [6] of 100 µg/mL (≈ 166 µM). For the same compound, the Activity [7] was “inactive”, the MIC ([8]; ATCC 700388, 20 h) was 25 µg/mL (≈ 41.5 µM) and the Activity [9] was “inactive”. For the same compound, the MIC [10] was 37.5 µg/mL (≈ 62.2 µM).
In the case of `O=C1c2cc(OCCCN3CCCCC3)ccc2-c2ccc(OCCCN3CCCCC3)cc21`, the Activity [11] is reported as “inactive”, the MIC [12] is reported as 100 µg/mL (≈ 216 µM) and the MIC [1] is reported as 75 µg/mL (≈ 162 µM). The Activity [13] was “inactive”, the Activity [14] was “inactive” and the Activity [15] was “inactive”. For the same compound, the Activity [16] was “inactive”, the MIC [5] was “inactive” and the Activity [7] was “inactive”. For the same compound, the Activity [9] was “inactive”.
In the case of `C=CCN(C)CCCOc1ccc2c(c1)C(=O)c1cc(OCCCN(C)CC=C)ccc1-2`, the MIC [12] is reported as 100 µg/mL (≈ 230 µM), the MIC [1] is reported as 100 µg/mL (≈ 230 µM) and the Activity [13] is reported as “inactive”. For the same compound, the MIC [17] was 100 µg/mL (≈ 230 µM), the Activity [15] was “inactive” and the Activity [16] was “inactive”. For the same compound, the MIC [18] was 100 µg/mL (≈ 230 µM), the MIC [4] was “inactive” and the MIC ([5]; ATCC 25608, 20 h) was 100 µg/mL (≈ 230 µM). For the same compound, the MIC [8] was “inactive”.
For `CCN(CC)CCOc1ccc2c(c1)C(=O)c1cc(OCCN(CC)CC)ccc1-2` [TILORONE], the IC50 [19] was 7.1 µM, the Activity [4] was “inactive” and the inhibition [20] was “Active”.
With `C=CCOc1ccc2c(c1)C(=O)c1cc(OCCCN(C)CC=C)ccc1-2` the Activity [11] was “inactive”, the Activity [21] was “inactive” and the MIC [1] was 25 µg/mL (≈ 68.8 µM). The Activity [13] was “inactive”, the Activity [14] was “inactive” and the MIC [2] was 32 µg/mL (≈ 88 µM). The Activity [3] was “inactive”, the Activity [7] was “inactive” and the Activity [9] was “inactive”. For the same compound, the MIC [10] was 50 µg/mL (≈ 138 µM).
In the case of `C=CCN(C)CCCCCCCCOc1ccc2c(c1)C(=O)c1cc(OCCCCCCCCN(C)CC=C)ccc1-2`, the MIC [1] is reported as 17.5 µg/mL (≈ 30.4 µM), the Activity [13] is reported as “inactive” and the MIC [2] is reported as 16 µg/mL (≈ 27.8 µM). The Activity [3] was “inactive”, the MIC ([4]; ATCC 25923, 20 h) was 50 µg/mL (≈ 87 µM) and the MIC ([5]; ATCC 25608, 20 h) was 100 µg/mL (≈ 174 µM). The Activity [7] was “inactive”, the MIC ([8]; ATCC 700388, 20 h) was 17.5 µg/mL (≈ 30.4 µM) and the Activity [9] was “inactive”. The MIC [10] was 37.5 µg/mL (≈ 65.2 µM).
With `C=CCN(C)CCOc1ccc2c(c1)C(=O)c1cc(OCCN(C)CC=C)ccc1-2` the Activity [11] was “inactive”, the Activity [21] was “inactive” and the MIC [1] was 100 µg/mL (≈ 246 µM). For the same compound, the Activity [13] was “inactive”, the Activity [14] was “inactive” and the Activity [15] was “inactive”. For the same compound, the Activity [16] was “inactive”, the Activity [3] was “inactive” and the Activity [7] was “inactive”. For the same compound, the Activity [9] was “inactive”.
With `O=C1c2cc(OCCN3CCCCC3)ccc2-c2ccc(OCCN3CCCCC3)cc21` the Activity [11] was “inactive”, the MIC [1] was 100 µg/mL (≈ 230 µM) and the Activity [13] was “inactive”. For the same compound, the Activity [14] was “inactive”, the Activity [15] was “inactive” and the Activity [16] was “inactive”. For the same compound, the Activity [3] was “inactive”, the MIC ([5]; ATCC 25608, 20 h) was 100 µg/mL (≈ 230 µM) and the Activity [7] was “inactive”. For the same compound, the Activity [9] was “inactive”.
